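Step 1: Grow cells in 96-well plates. Step 2: Expose to compound for 48 hours at 5 concentrations. Step 3: Interpolate endpoints linearly; if unreached, use highest concentration. Here, GI50 denotes the concentration required for 50% inhibition of growth.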 Active and inactive are the calls of the source. Cut-off read from the data, not from the text of the source: active = GI50 up to about 1.1 µM and inactive = higher.
Assays:
Experiment in all cases: DTP human tumour cell line panel, 48 h
UACC-62 = system: UACC-62
IGROV-1 = system: IGROV-1
MOLT-4 = system: MOLT-4
ACHN = system: ACHN
SF-268 = system: SF-268
SK-OV-3 = system: SK-OV-3
U-251 = system: U-251
A498 = system: A498
UACC-257 = system: UACC-257
OVCAR-5 = system: OVCAR-5
HT-29 = system: HT-29
NCI-H23 = system: NCI-H23
SF-295 = system: SF-295
RPMI-8226 = system: RPMI-8226
SK-MEL-2 = system: SK-MEL-2
HL-60 = system: HL-60
SK-MEL-5 = system: SK-MEL-5
CAKI-1 = system: CAKI-1

Measured: GI50

CCOC(=O)N1CCc2cc(OC)c(OC)cc2/C1=C\c1ccc(OC)c(OC)c1
inactive: UACC-62 22.9 µM | IGROV-1 45.5 µM | MOLT-4 27.7 µM | ACHN 26.3 µM | SF-268 37.8 µM | SK-OV-3 54 µM | U-251 30.3 µM | A498 23.2 µM | UACC-257 23.6 µM | OVCAR-5 38.3 µM | HT-29 19 µM | NCI-H23 39 µM | SF-295 22.9 µM | RPMI-8226 24.4 µM | SK-MEL-2 12.1 µM | HL-60 19.5 µM

BrC1=CCC23CC=C(Br)[C@H]4CC2(COC3)C[C@@H]1O4 (some centres undefined)
inactive: UACC-62 46.1 µM | IGROV-1 > 100 µM | MOLT-4 25.8 µM | ACHN > 100 µM | SK-MEL-5 > 100 µM | SF-268 16.9 µM | U-251 79.3 µM | OVCAR-5 21.2 µM | HT-29 > 10 µM | NCI-H23 37.2 µM | SF-295 > 100 µM | RPMI-8226 39.6 µM | SK-MEL-2 54.7 µM | HL-60 6.41 µM

CC1C=C(OC(=O)c2ccccc2)C(=O)C(n2cc(F)c(=O)n(C(=O)c3ccccc3)c2=O)O1 (centres undefined)
inactive: UACC-62 35.3 µM | IGROV-1 > 100 µM | MOLT-4 32.7 µM | ACHN 50.5 µM | SK-MEL-5 73.8 µM | SK-OV-3 > 100 µM | U-251 37.3 µM | UACC-257 70.1 µM | HT-29 34.7 µM | NCI-H23 43 µM | SF-295 78 µM | RPMI-8226 38.1 µM | SK-MEL-2 45.3 µM | HL-60 23.9 µM | CAKI-1 32.4 µM

CN(NC1OC(CO)C(O)C(O)C1O)c1ccccc1 (centres undefined)
inactive: UACC-62 > 100 µM | IGROV-1 > 100 µM | MOLT-4 > 100 µM | ACHN > 100 µM | SK-MEL-5 > 100 µM | SF-268 > 100 µM | U-251 > 100 µM | UACC-257 > 100 µM | OVCAR-5 > 100 µM | HT-29 > 100 µM | NCI-H23 > 100 µM | SF-295 > 100 µM | RPMI-8226 > 100 µM | HL-60 > 100 µM | CAKI-1 > 100 µM

COC(OC)c1cccc2c1C(=O)CCC1(O)c3ccccc3C1C2 (centres undefined)
inactive: UACC-62 > 100 µM | IGROV-1 > 100 µM | MOLT-4 65.5 µM | SK-MEL-5 > 100 µM | SF-268 > 100 µM | SK-OV-3 > 100 µM | UACC-257 84.1 µM | OVCAR-5 > 100 µM | HT-29 > 100 µM | NCI-H23 78.9 µM | SF-295 42.1 µM | RPMI-8226 12.2 µM | SK-MEL-2 > 100 µM | HL-60 35.2 µM

CC1(O)C(C)(O)C(C)(O)C1(C)O (centres undefined)
inactive: UACC-62 > 100 µM | IGROV-1 > 100 µM | MOLT-4 > 100 µM | ACHN > 100 µM | SK-MEL-5 > 100 µM | SF-268 > 100 µM | SK-OV-3 > 100 µM | U-251 > 100 µM | A498 > 100 µM | UACC-257 > 100 µM | OVCAR-5 > 100 µM | HT-29 > 100 µM | NCI-H23 > 100 µM | SF-295 > 100 µM | SK-MEL-2 > 100 µM | HL-60 > 100 µM | CAKI-1 > 100 µM

[N-]=[N+]=NC(c1cn(C2CC(O)C(CO)O2)c(=O)[nH]c1=O)C(Br)I (centres undefined)
inactive: UACC-62 > 100 µM | IGROV-1 > 100 µM | MOLT-4 > 100 µM | ACHN > 100 µM | SK-MEL-5 > 100 µM | SK-OV-3 > 100 µM | U-251 > 100 µM | OVCAR-5 > 100 µM | HT-29 > 100 µM | NCI-H23 > 100 µM | SF-295 > 100 µM | RPMI-8226 > 100 µM | SK-MEL-2 > 100 µM | HL-60 > 100 µM | CAKI-1 > 100 µM

C[C@]12CCC3c4ccc(OC(=O)c5ccccc5)cc4CC[C@H]3C1CC[C@@H]2OC(=O)C12OC1CCC2=O (some centres undefined)
inactive: UACC-62 15.6 µM | IGROV-1 4.63 µM | MOLT-4 2.32 µM | ACHN 5.27 µM | SK-MEL-5 4.69 µM | SF-268 2.68 µM | SK-OV-3 15.8 µM | U-251 2.8 µM | A498 6.04 µM | UACC-257 5.81 µM | OVCAR-5 8.38 µM | HT-29 3.34 µM | NCI-H23 4.73 µM | SF-295 12.3 µM | RPMI-8226 4.23 µM | SK-MEL-2 7.94 µM | HL-60 1.9 µM

O=C(/C(=N/Nc1ccccc1)c1ccc([N+](=O)[O-])cc1)c1ccc([N+](=O)[O-])cc1
inactive: UACC-62 > 100 µM | IGROV-1 > 100 µM | MOLT-4 > 100 µM | ACHN > 100 µM | SK-MEL-5 > 100 µM | SK-OV-3 > 100 µM | U-251 > 100 µM | UACC-257 > 100 µM | OVCAR-5 > 100 µM | HT-29 20.7 µM | NCI-H23 > 100 µM | SF-295 32.1 µM | RPMI-8226 93.3 µM | SK-MEL-2 > 100 µM | CAKI-1 > 100 µM

CCCCNC(=O)OCC(COc1ccccc1OC)OC(=O)NCCCC (centres undefined)
inactive: UACC-62 89.9 µM | IGROV-1 > 100 µM | MOLT-4 > 100 µM | ACHN > 100 µM | SK-MEL-5 87.5 µM | SF-268 > 100 µM | SK-OV-3 > 100 µM | U-251 > 100 µM | A498 > 100 µM | UACC-257 > 100 µM | HT-29 > 100 µM | NCI-H23 > 100 µM | SF-295 > 100 µM | RPMI-8226 95.9 µM | SK-MEL-2 > 100 µM | HL-60 > 100 µM | CAKI-1 > 100 µM

COc1ccc2c(C3(O)CCNCC3)c[nH]c2c1
inactive: UACC-62 > 100 µM | IGROV-1 > 100 µM | MOLT-4 > 100 µM | ACHN > 100 µM | SK-MEL-5 > 100 µM | SF-268 > 100 µM | SK-OV-3 > 100 µM | U-251 > 100 µM | OVCAR-5 > 100 µM | HT-29 > 100 µM | NCI-H23 > 100 µM | SF-295 > 100 µM | RPMI-8226 > 100 µM | SK-MEL-2 > 100 µM | HL-60 > 100 µM | CAKI-1 > 100 µM

C1CCN2CC3CONC3C2C1 (centres undefined)
inactive: UACC-62 > 100 µM | IGROV-1 > 100 µM | MOLT-4 > 100 µM | ACHN > 100 µM | SK-MEL-5 > 100 µM | SF-268 > 100 µM | U-251 > 100 µM | A498 > 100 µM | UACC-257 > 100 µM | OVCAR-5 > 100 µM | HT-29 > 100 µM | NCI-H23 > 100 µM | SF-295 > 100 µM | RPMI-8226 > 100 µM | SK-MEL-2 > 100 µM | HL-60 > 100 µM | CAKI-1 > 100 µM

O=C(c1ccccc1)c1c(CC(O)c2ccccn2)n(C(=O)c2ccccc2)c2ccccc12 (centres undefined)
inactive: UACC-62 15.7 µM | IGROV-1 23.7 µM | MOLT-4 17.1 µM | ACHN 26.7 µM | SK-MEL-5 13.9 µM | SF-268 28.3 µM | U-251 25.1 µM | UACC-257 17.7 µM | OVCAR-5 20.7 µM | HT-29 15 µM | NCI-H23 22.1 µM | SF-295 20.2 µM | RPMI-8226 21.3 µM | SK-MEL-2 14.9 µM | HL-60 > 10 µM | CAKI-1 36.6 µM

COC(=O)N(C(=O)OC)C(C(=O)O)C(C)C (centres undefined)
inactive: ACHN > 100 µM | SF-268 > 100 µM | U-251 > 100 µM | UACC-257 > 100 µM | OVCAR-5 > 100 µM | HT-29 > 100 µM | NCI-H23 > 100 µM | SF-295 > 100 µM | SK-MEL-2 > 100 µM | HL-60 > 100 µM | CAKI-1 > 100 µM

CC(C)C.C[N+](C)(C)C.OC(c1ccccc1)(C(F)(F)F)C(F)(F)F.OC(c1ccccc1)(C(F)(F)F)C(F)(F)F.[SiH3-]
inactive: MOLT-4 1.73 µM | ACHN 8.51 µM | SK-MEL-5 10.4 µM | U-251 2.07 µM | UACC-257 14.1 µM | OVCAR-5 2.28 µM | HT-29 3.64 µM | NCI-H23 3.25 µM | SF-295 3.42 µM | RPMI-8226 4.43 µM | SK-MEL-2 9.1 µM | CAKI-1 11.3 µM

CC1CC(=O)C2CC(CO)=CCCC2C1(C)CC/C(=C/CO)CO (centres undefined)
inactive: UACC-62 > 100 µM | IGROV-1 > 100 µM | MOLT-4 > 100 µM | ACHN > 100 µM | SK-MEL-5 > 100 µM | SK-OV-3 > 100 µM | U-251 > 100 µM | A498 > 100 µM | UACC-257 > 100 µM | HT-29 > 100 µM | NCI-H23 > 100 µM | SF-295 > 100 µM | RPMI-8226 > 100 µM | CAKI-1 > 100 µM

COc1ccc2c(=O)c(C)c(-c3ccccc3)oc2c1CN(C)C [DIMEFLINE]
inactive: UACC-62 > 100 µM | IGROV-1 > 100 µM | MOLT-4 > 100 µM | ACHN > 100 µM | SK-MEL-5 > 100 µM | SK-OV-3 > 100 µM | A498 > 100 µM | OVCAR-5 65.5 µM | NCI-H23 > 100 µM | SF-295 > 100 µM | RPMI-8226 > 100 µM | CAKI-1 > 100 µM

C=C1C[C@]23C[C@@]1(O)CC[C@H]2[C@@]12C=C[C@H](O)[C@@](C)(C(=O)O1)[C@H]2[C@@H]3C(=O)O [GIBBERELLIN A3]
inactive: UACC-62 > 100 µM | IGROV-1 > 100 µM | MOLT-4 > 100 µM | SK-MEL-5 > 100 µM | SF-268 > 100 µM | SK-OV-3 > 100 µM | U-251 > 100 µM | UACC-257 > 100 µM | OVCAR-5 > 100 µM | HT-29 > 100 µM | NCI-H23 > 100 µM | SF-295 > 100 µM | RPMI-8226 > 100 µM | SK-MEL-2 > 100 µM | HL-60 > 100 µM | CAKI-1 > 100 µM

Reference: ChEMBL document CHEMBL1201862, “PubChem BioAssay data set” (2004)
